Measurements reported in patent US11498899B2, “Nitrone herbicides” (FMC Corporation, priority 2016, dated 2022).

Tests used:
[1] = tested on: barnyardgrass (Echinochloa crus-galli); experiment: Test A preemergence, visual injury rating 0-100 (0 no effect, 100 complete control); type: in vivo
[2] = tested on: foxtail, giant (giant foxtail, Setaria faberii); experiment: Test A preemergence, visual injury rating 0-100; type: in vivo
[3] = tested on: kochia (Kochia scoparia); experiment: Test A preemergence, visual injury rating 0-100; type: in vivo
[4] = tested on: pigweed (Amaranthus retroflexus); experiment: Test A preemergence, visual injury rating 0-100; type: in vivo
[5] = tested on: ragweed (common ragweed, Ambrosia elatior); experiment: Test A preemergence, visual injury rating 0-100; type: in vivo
[6] = tested on: ryegrass, Italian (Italian ryegrass, Lolium multiflorum); experiment: Test A preemergence, visual injury rating 0-100; type: in vivo
[7] = tested on: barnyardgrass (Echinochloa crus-galli); experiment: Test A postemergence, visual injury rating 0-100; type: in vivo; details: 0 to 100 scale
Description: (§1) Seeds of plant species selected from barnyardgrass (Echinochloa crus-galli), kochia (Kochia scoparia), ragweed (common ragweed, Ambrosia elatior), ryegrass, Italian (Italian ryegrass, Lolium multiflorum), foxtail, giant (giant foxtail, Setaria faberii), foxtail, green (green foxtail, Setaria viridis), and pigweed (Amaranthus retroflexus) were planted into a blend of loam soil and sand and treated preemergence with a directed soil spray using test chemicals formulated in a non-phytotoxic solvent mixture which included a surfactant.
(§2) At the same time, plants selected from these weed species and also wheat (Triticum aestivum), corn (Zea mays), blackgrass (Alopecurus myosuroides), and galium (catchweed bedstraw, Galium aparine) were planted in pots containing the same blend of loam soil and sand and treated with postemergence applications of test chemicals formulated in the same manner. Plants ranged in height from 2 to 10 cm and were in the one- to two-leaf stage for the postemergence treatment. Treated plants and untreated controls were maintained in a greenhouse for approximately 10 days, after which time all treated plants were compared to untreated controls and visually evaluated for injury. […] A dash (-) response means no test result.

[8] = tested on: blackgrass (Alopecurus myosuroides); experiment: Test A postemergence, visual injury rating 0-100; type: in vivo; details: 0 to 100 scale
Description: as §1, §2

[9] = tested on: corn (Zea mays); experiment: Test A postemergence, visual injury rating 0-100; type: in vivo; details: 0 to 100 scale
Description: as §1, §2

[10] = tested on: foxtail, giant (giant foxtail, Setaria faberii); experiment: Test A postemergence, visual injury rating 0-100; type: in vivo; details: 0 to 100 scale
Description: as §1, §2

[11] = tested on: galium (catchweed bedstraw, Galium aparine); experiment: Test A postemergence, visual injury rating 0-100; type: in vivo; details: 0 to 100 scale
Description: as §1, §2

[12] = tested on: kochia (Kochia scoparia); experiment: Test A postemergence, visual injury rating 0-100; type: in vivo; details: 0 to 100 scale
Description: as §1, §2

[13] = tested on: pigweed (Amaranthus retroflexus); experiment: Test A postemergence, visual injury rating 0-100; type: in vivo; details: 0 to 100 scale
Description: as §1, §2

[14] = tested on: ragweed (common ragweed, Ambrosia elatior); experiment: Test A postemergence, visual injury rating 0-100; type: in vivo; details: 0 to 100 scale
Description: as §1, §2

[15] = tested on: ryegrass, Italian (Italian ryegrass, Lolium multiflorum); experiment: Test A postemergence, visual injury rating 0-100; type: in vivo; details: 0 to 100 scale
Description: as §1, §2

[16] = tested on: wheat (Triticum aestivum); experiment: Test A postemergence, visual injury rating 0-100; type: in vivo; details: 0 to 100 scale
Description: as §1, §2

[17] = tested on: ducksalad (Heteranthera limosa); experiment: Test B flooded paddy test, visual rating 0-100; details: Flood, 250 g ai/ha, applied to paddy water, rated after 13 to 15 days
[18] = tested on: barnyardgrass (Echinochloa crus-galli); experiment: Test B flooded paddy test, visual rating 0-100; details: Flood, 250 g ai/ha, applied to paddy water, rated after 13 to 15 days
[19] = tested on: rice (Oryza sativa); experiment: Test B flooded paddy test, visual rating 0-100 (0 no effect, 100 complete control); details: Flood, 250 g ai/ha, applied to paddy water, rated after 13 to 15 days

| SMILES | Barnyardgrass plant response rating (0 to 100 scale) ([1]; 125 g ai/ha) | Barnyardgrass plant response rating (0 to 100 scale) ([1]; 500 g ai/ha) | Foxtail, Giant plant response rating (0 to 100 scale) ([2]; 125 g ai/ha) | Foxtail, Giant plant response rating (0 to 100 scale) ([2]; 500 g ai/ha) | Kochia plant response rating (0 to 100 scale) ([3]; 125 g ai/ha) | Kochia plant response rating (0 to 100 scale) ([3]; 500 g ai/ha) | Pigweed plant response rating (0 to 100 scale) ([4]; 125 g ai/ha) | Pigweed plant response rating (0 to 100 scale) ([4]; 500 g ai/ha) | Ragweed plant response rating (0 to 100 scale) ([5]; 125 g ai/ha) | Ragweed plant response rating (0 to 100 scale) ([5]; 500 g ai/ha) | Ryegrass, Italian plant response rating (0 to 100 scale) ([6]; 125 g ai/ha) | Ryegrass, Italian plant response rating (0 to 100 scale) ([6]; 500 g ai/ha) | Barnyardgrass plant response rating ([7]; 125 g ai/ha) | Barnyardgrass plant response rating ([7]; 500 g ai/ha) | Blackgrass plant response rating ([8]; 125 g ai/ha) | Blackgrass plant response rating ([8]; 500 g ai/ha) | Corn plant response rating ([9]; 125 g ai/ha) | Corn plant response rating ([9]; 500 g ai/ha) | Foxtail, Giant plant response rating ([10]; 125 g ai/ha) | Foxtail, Giant plant response rating ([10]; 500 g ai/ha) | also measured |
| --- | --- | --- | --- | --- | --- | --- | --- | --- | --- | --- | --- | --- | --- | --- | --- | --- | --- | --- | --- | --- | --- |
| COc1cc(C2CC(C)=[N+]([O-])C2C(=O)Nc2cccc(F)c2F)cc(C)n1 (racemic) [Compound 57] | 90 | 100 | 90 | 100 | 60 | 60 | 0 | 20 | 0 | 30 | 20 | 90 | 80 | 80 | 80 | 90 | 60 | 90 | 40 | 90 | Galium plant response rating ([11]; 125 g ai/ha): 30; Galium plant response rating ([11]; 500 g ai/ha): 40; Kochia plant response rating ([12]; 125 g ai/ha): 0; Kochia plant response rating ([12]; 500 g ai/ha): 30; Pigweed plant response rating ([13]; 125 g ai/ha): 0; Pigweed plant response rating ([13]; 500 g ai/ha): 0; Ragweed plant response rating ([14]; 125 g ai/ha): 0; Ragweed plant response rating ([14]; 500 g ai/ha): 0; Ryegrass, Italian plant response rating ([15]; 125 g ai/ha): 40; Ryegrass, Italian plant response rating ([15]; 500 g ai/ha): 90; Wheat plant response rating ([16]; 125 g ai/ha): 20; Wheat plant response rating ([16]; 500 g ai/ha): 90; Ducksalad plant response rating (0 to 100 scale) [17]: 0; Barnyardgrass plant response rating (0 to 100 scale) [18]: 55; Rice plant response rating (0 to 100 scale) [19]: 0 |
| CC1=[N+]([O-])C(C(=O)Nc2cccc(F)c2F)C(c2cccc(Oc3ccc(F)cc3)c2)C1 (racemic) [Compound 58] | 10 | 90 | 40 | 90 | 0 | 0 | 0 | 0 | 0 | 90 | 10 | 80 | 10 | 30 | 20 | 70 | 0 | 40 | 30 | 70 | Galium plant response rating ([11]; 125 g ai/ha): 30; Galium plant response rating ([11]; 500 g ai/ha): 50; Kochia plant response rating ([12]; 125 g ai/ha): 0; Kochia plant response rating ([12]; 500 g ai/ha): 20; Pigweed plant response rating ([13]; 125 g ai/ha): 0; Pigweed plant response rating ([13]; 500 g ai/ha): 30; Ragweed plant response rating ([14]; 125 g ai/ha): 0; Ragweed plant response rating ([14]; 500 g ai/ha): 0; Ryegrass, Italian plant response rating ([15]; 125 g ai/ha): 20; Ryegrass, Italian plant response rating ([15]; 500 g ai/ha): 50; Wheat plant response rating ([16]; 125 g ai/ha): 10; Wheat plant response rating ([16]; 500 g ai/ha): 20; Ducksalad plant response rating (0 to 100 scale) [17]: 0; Barnyardgrass plant response rating (0 to 100 scale) [18]: 0; Rice plant response rating (0 to 100 scale) [19]: 0 |
| CC1=[N+]([O-])C(C(=O)Nc2cccc(F)c2F)C(c2ccc(C(F)(F)F)nc2)C1 (racemic) [Compound 60] | 90 | 100 | 90 | 100 | 10 | 80 | 50 | 80 | 0 | 90 | 10 | 70 | 40 | 90 | 10 | 70 | 20 | 60 | 70 | 90 | Galium plant response rating ([11]; 125 g ai/ha): 20; Galium plant response rating ([11]; 500 g ai/ha): 60; Kochia plant response rating ([12]; 125 g ai/ha): 0; Kochia plant response rating ([12]; 500 g ai/ha): 10; Pigweed plant response rating ([13]; 125 g ai/ha): 0; Pigweed plant response rating ([13]; 500 g ai/ha): 10; Ragweed plant response rating ([14]; 125 g ai/ha): 0; Ragweed plant response rating ([14]; 500 g ai/ha): 40; Ryegrass, Italian plant response rating ([15]; 125 g ai/ha): 0; Ryegrass, Italian plant response rating ([15]; 500 g ai/ha): 40; Wheat plant response rating ([16]; 125 g ai/ha): 20; Wheat plant response rating ([16]; 500 g ai/ha): 70; Ducksalad plant response rating (0 to 100 scale) [17]: 0; Barnyardgrass plant response rating (0 to 100 scale) [18]: 40; Rice plant response rating (0 to 100 scale) [19]: 0 |
| CC1=[N+]([O-])C(C(=O)Nc2cccc(F)c2F)C(c2ccc(C)c(C(F)(F)F)c2)C1 (racemic) [Compound 62] | 90 | 90 | 90 | 90 | 0 | 60 | 10 | 70 | 0 | 60 | 90 | 90 | 70 | 80 | 40 | 70 | 60 | 80 | 50 | 80 | Galium plant response rating ([11]; 125 g ai/ha): 40; Galium plant response rating ([11]; 500 g ai/ha): 50; Kochia plant response rating ([12]; 125 g ai/ha): 0; Kochia plant response rating ([12]; 500 g ai/ha): 20; Pigweed plant response rating ([13]; 125 g ai/ha): 0; Pigweed plant response rating ([13]; 500 g ai/ha): 10; Ragweed plant response rating ([14]; 125 g ai/ha): 0; Ragweed plant response rating ([14]; 500 g ai/ha): 50; Ryegrass, Italian plant response rating ([15]; 125 g ai/ha): 70; Ryegrass, Italian plant response rating ([15]; 500 g ai/ha): 80; Wheat plant response rating ([16]; 125 g ai/ha): 40; Wheat plant response rating ([16]; 500 g ai/ha): 50; Ducksalad plant response rating (0 to 100 scale) [17]: 0; Barnyardgrass plant response rating (0 to 100 scale) [18]: 55; Rice plant response rating (0 to 100 scale) [19]: 0 |
| CC1=[N+]([O-])C(C(=O)Nc2cccc(F)c2F)C(c2ccc(F)c(Cl)c2)C1 (racemic) [Compound 63] | 80 | 90 | 90 | 90 | 0 | 40 | 10 | 60 | 0 | 80 | 20 | 80 | 50 | 90 | 70 | 90 | 10 | 90 | 50 | 90 | Galium plant response rating ([11]; 125 g ai/ha): 30; Galium plant response rating ([11]; 500 g ai/ha): 70; Kochia plant response rating ([12]; 125 g ai/ha): 20; Kochia plant response rating ([12]; 500 g ai/ha): 30; Pigweed plant response rating ([13]; 125 g ai/ha): 0; Pigweed plant response rating ([13]; 500 g ai/ha): 20; Ragweed plant response rating ([14]; 125 g ai/ha): 0; Ragweed plant response rating ([14]; 500 g ai/ha): 20; Ryegrass, Italian plant response rating ([15]; 125 g ai/ha): 30; Ryegrass, Italian plant response rating ([15]; 500 g ai/ha): 90; Wheat plant response rating ([16]; 125 g ai/ha): 40; Wheat plant response rating ([16]; 500 g ai/ha): 80; Ducksalad plant response rating (0 to 100 scale) [17]: 30; Barnyardgrass plant response rating (0 to 100 scale) [18]: 65; Rice plant response rating (0 to 100 scale) [19]: 0 |
